pIC50: −log10 of the molar value. Counter-ions that a name gives are not always drawn.

substance P receptor, sequence (P25103 whole entry): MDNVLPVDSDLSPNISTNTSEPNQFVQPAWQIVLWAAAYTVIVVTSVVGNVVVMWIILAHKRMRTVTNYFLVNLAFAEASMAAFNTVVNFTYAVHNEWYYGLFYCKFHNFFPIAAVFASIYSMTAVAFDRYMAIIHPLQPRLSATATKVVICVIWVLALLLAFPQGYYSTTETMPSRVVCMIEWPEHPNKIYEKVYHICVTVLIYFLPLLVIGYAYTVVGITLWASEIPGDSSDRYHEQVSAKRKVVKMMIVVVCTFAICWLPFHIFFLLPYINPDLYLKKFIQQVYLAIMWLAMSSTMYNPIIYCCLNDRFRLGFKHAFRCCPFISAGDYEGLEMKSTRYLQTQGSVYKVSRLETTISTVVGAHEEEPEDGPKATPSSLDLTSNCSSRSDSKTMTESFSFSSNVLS

For this assay, the target named is substance P receptor (Homo sapiens, UniProt P25103). Kind of assay: Radioligand receptor binding inhibitory assay using receptor from human lymphoblast cells (IM-9), 125I-BHSP. The note with it: IM-9 receptor, 25° C., 30 minutes. As to the method:
The method of A. Margaret et al. [Molecular Pharmacology 42, 458 (1992)] was modified and used. The receptor was prepared from human lymphoblast cells (IM-9). IM-9 cells were grown in 175 cm^2 tissue culture flasks (100 ml×10) at a density approximately 2×10^5 /ml of RPMI 1640 with L-glutamine, 10% (V/V) heat inactivated fetal calf serum, penicillin (100 u/ml), and streptomycin (100 μg/ml) at 37° C. in 5% CO2 /95% air for 3 days. IM-9 cells were obtained by centrifugation at 500×g for 5 minutes at 5° C. The pellet obtained was washed once with phosphate buffer (Flow Laboratories, CAT No. 28-103-05), homogenized using Polytron homogenizer (Kinematika, Germany) in 30 ml of 50 mM Tris-HCl buffer containing 120 mM NaCl, 5 mM KCl, 2 μg/ml phenylmethyl sulfonyl fluoride, and 1 mM ethylenediamine tetra-acetic acid and then centrifuged at 40,000×g for 20 minutes. The residue was washed twice with 30 ml of buffer described above, and preserved frozen (-80° C.).
The above specimen was suspended in a reaction buffer (50 mM Tris-HCl buffer (pH 7.4), 0.02% bovine serum albumin, 1 mM phenylmethylsulfonyl fluoride, 2 μg/ml chymostatin, 40 μg/ml bacitracin, 3 mM manganese chloride) at a protein concentration of 1.5 mg/ml and a 100 μl portion of the suspension was used in the reaction. After addition of the sample and 125I-BHSP (0.46 KBq), the reaction was conducted in 0.2 ml of reaction buffer at 25° C. for 30 minutes. The amount of nonspecific binding was determined by adding substance P at a final concentration of 2×10^-6 M. After the reaction, using a cell harvester (290PHD, Cambridge Technology, Inc., England), rapid filtration was carried out through a glass filter (GF/B, Whatman, U.S.A.) to stop the reaction. After washing three times with 250 μl of 50 mM Tris-HCl buffer (pH 7.4) containing 0.02% bovine serum albumin, the radioactivity remaining on the filter was measured with a gamma counter. Before use, the filter was immersed in 0.1% polyethyleneimine for 24 hours and air-dried.
In the case of `CCc1ccccc1-c1c(COCc2cc(C(F)(F)F)cc(C(F)(F)F)c2)n(C)c(=O)c2ccccc12` [Example 216, 3,5-Bis(trifluoromethyl)benzyl 4-(2-ethylphenyl)-1,2-dihydro-2-methyl-1-oxo-3-isoquinolinemethyl ether], the negative-log IC50 (pIC50) is 7.21. Take `Cc1cc2c(-c3ccccc3)c(CC(=O)N(C)Cc3ccccc3Cl)n(C)c(=O)c2cc1C` [Example 221, N-(2-Chlorobenzyl)-1,2-dihydro-N,2,6,7-tetramethyl-1-oxo-4-phenyl-3-isoquinolineacetamide]: the pIC50 was 6.89.

In the case of `CN(Cc1cc(C(F)(F)F)cc(C(F)(F)F)c1)C(=O)c1[nH]c(=O)c2ccccc2c1-c1ccc(F)cc1` [Example 178, N-[3,5-Bis(trifluoromethyl)benzyl]-4-(4-fluorophenyl)-1,2-dihydro-N-methyl-1-oxo-3-isoquinolinecarboxamide], the pIC50 was 9.85. Next, `Cc1ccc(CNC(=O)c2c(-c3ccccc3)c3cc(C)c(C)cc3c(=O)n2C)cc1` [Example 127, 1,2-Dihydro-2,6,7-trimethyl-N-(4-methylbenzyl)-1-oxo-4-phenyl-3-isoquinolinecarboxamide]: 8.06; `Cc1ccc(CNC(=O)c2c(-c3ccccc3)c3ccccc3c(=O)n2C)cc1` [Example 170, 1,2-Dihydro-2-methyl-N-(4-methylbenzyl)-1-oxo-4-phenyl-3isoquinolinecarboxamide]: 7.72; `CN(Cc1cc(C(F)(F)F)cc(C(F)(F)F)c1)C(=O)c1c(-c2ccc(F)cc2)c2ccccc2c(=O)n1C` [Example 166, N-[3,5-Bis(trifluoromethyl)benzyl]-4-(4-fluorophenyl)-1,2-dihydro-N,2-dimethyl-1-oxo-3-isoquinolinecarboxamide]: 9.46. For `Cn1c(C(=O)NCc2cc(C(F)(F)F)cc(C(F)(F)F)c2)c(-c2ccc(F)cc2)c2ccccc2c1=O` [Example 165, N-[3,5-Bis(trifluoromethyl)benzyl]-4-(4-fluorophenyl)-1,2-dihydro-2-methyl-1-oxo-3-isoquinolinecarboxamide] the value was 7.62; for `COc1ccccc1CCOCc1c(-c2ccccc2)c2cc(C)c(C)cc2c(=O)n1C` [Example 207, 1,2-Dihydro-2,6,7-trimethyl-1-oxo-4-phenyl-3-isoquinolinemethyl 2-(2-methoxyphenyl)ethyl ether], 6.96; for `COc1ccccc1-c1c(C(=O)NCc2cc(C(F)(F)F)cc(C(F)(F)F)c2)n(C)c(=O)c2ccccc12` [Example 158, N-[3,5-Bis(trifluoromethyl)benzyl]-1,2-dihydro-4-(2-methoxyphenyl)-2-methyl-1-oxo-3-isoquinolinecarboxamide], 7.11. Compound `CCOC(=O)CCn1c(C(=O)NCc2cc(C(F)(F)F)cc(C(F)(F)F)c2)c(-c2ccccc2)c2ccccc2c1=O` [Example 179, N-[3,5-Bis(trifluoromethyl)benzyl]-2-(2-ethoxycarbonylethyl)-1,2-dihydro-1-oxo-4-phenyl-3-isoquinolinecarboxamide] showed a pIC50 of 7.10.

The compound `CN(C)CCn1c(C(=O)N(C)Cc2cc(C(F)(F)F)cc(C(F)(F)F)c2)c(-c2ccccc2)c2ccccc2c1=O` [Example 184, N-[3,5-Bis(trifluoromethyl)benzyl]-2-[2-(N,N-dimethylamino)ethyl]-1,2-dihydro-N-methyl-1-oxo-4-phenyl-3-isoquinolinecarboxamide hydrochloride] gave a negative-log IC50 (pIC50) of 7.77. Next, `Cc1cc(F)ccc1-c1c(C(=O)N(C)Cc2cc(C(F)(F)F)cc(C(F)(F)F)c2)n(C)c(=O)c2ccccc12` [Example 176, N-[3,5-Bis(trifluoromethyl)benzyl]-4-(4-fluoro-2-methylphenyl)-1,2-dihydro-N,2-dimethyl-1-oxo-3-isoquinolinecarboxamide]: 9.15; `CNc1nc(C(=O)N(C)Cc2cc(C(F)(F)F)cc(C(F)(F)F)c2)c(-c2ccccc2)c2ccccc12` [Example 278, N-[3,5-Bis(trifluoromethyl)benzyl]-N-methyl-1-methylamino-4-phenyl-3-isoquinolinecarboxamide]: 8.00; `CN(Cc1cc(C(F)(F)F)cc(C(F)(F)F)c1)C(=O)[C@@H]1OC(=O)c2ccccc2[C@@H]1c1ccccc1` (relative stereo) [Example 281, 3,4-cis-N-[3,5-Bis(trifluoromethyl)benzyl]-3,4-dihydro-N-methyl-1-oxo-4-phenyl-1H-2-benzopyran-3-carboxamide]: 7.44.

`Cc1ccccc1-c1c(C(=O)NCc2cc(C(F)(F)F)cc(C(F)(F)F)c2)n(C)c(=O)c2ccccc12` [Example 101, N-[3,5-Bis(trifluoromethyl)benzyl]-1,2-dihydro-2-methyl-4-(2-methylphenyl)-1-oxo-3-isoquinolinecarboxamide] gave a pIC50 of 8.60. The compound `Cc1cc2c(-c3ccccc3)c(C(=O)N(C)Cc3cc(C(F)(F)F)cc(C(F)(F)F)c3)n(C)c(=O)c2cc1C` [Example 112, N-[3,5-Bis(trifluoromethyl)benzyl]-1,2-dihydro-N,2,6,7-tetramethyl-1-oxo-4-phenyl-3-isoquinolinecarboxamide] gave a pIC50 of 8.08. Next, `CCN(Cc1cc(C(F)(F)F)cc(C(F)(F)F)c1)C(=O)c1c(-c2ccccc2)c2ccccc2c(=O)n1C` [Example 187, N-[3,5-Bis(trifluoromethyl)benzyl]-1,2-dihydro-N-ethyl-2-methyl-1-oxo-4-phenyl-3-isoquinolinecarboxamide]: 8.85. For the compound `COc1ccccc1-c1c(C(=O)N(C)Cc2cc(C(F)(F)F)cc(C(F)(F)F)c2)c(=O)oc2ccccc12` [Example 255, N-[3,5-Bis(trifluoromethyl)benzyl]-4-(2-methoxyphenyl)-N-methyl-2-oxo-2H-1-benzopyran-3-carboxamide], the pIC50 was 8.89. Next, `Cc1cc(C)cc(COCc2c(-c3ccccc3)c3cc(C)c(C)cc3c(=O)n2C)c1` [Example 208, 1,2-Dihydro-2,6,7-trimethyl-1-oxo-4-phenyl-3-isoquinolinemethyl 3,5-dimethylbenzyl ether]: 6.85; `Cc1ccccc1-c1c(C(=O)N(C)Cc2cc(C(F)(F)F)cc(C(F)(F)F)c2)c(=O)oc2ccc(Cl)cc12` [Example 248]: 7.80. For `Cc1ccccc1-c1c(C(=O)N(C)Cc2ccccc2Cl)n(C)c(=O)c2ccccc12` [Example 105, N-(2-Chlorobenzyl)-1,2-dihydro-N,2-dimethyl-4-(2-methylphenyl)-1-oxo-3-isoquinolinecarboxsmide] the value was 7.72. Next, `COc1ccccc1-c1c(C(=O)N(C)Cc2cc(C(F)(F)F)cc(C(F)(F)F)c2)n(C)c(=O)c2ccccc12` [Example 159, N-[3,5-Bis(trifluoromethyl)benzyl]-1,2-dihydro-4-(2-methoxyphenyl)-N,2-dimethyl-1-oxo-3-isoquinolinecarboxamide]: 7.92; `COc1ccccc1CN(C)C(=O)c1c(-c2ccccc2)c2ccccc2c(=O)n1C` [Example 108, 1,2-Dihydro-N-(2-methoxybenzyl)-N,2-dimethyl-1-oxo-4-phenyl-3-isoquinolinecarboxamide]: 7.52; `Cc1cc2c(-c3ccccc3)c(C(=O)NCc3cccc(Cl)c3)n(C)c(=O)c2cc1C` [Example 130, N-(3-Chlorobenzyl)-1,2-dihydro-2,6,7-trimethyl-1-oxo-4-phenyl-3-isoquinolinecarboxamide]: 7.42. For `COc1ccccc1CNCc1c(-c2ccccc2)c2cc(C)c(C)cc2c(=O)n1C` [Example 190, 1,2-Dihydro-N-(2-methoxybenzyl)-2,6,7-trimethyl-1-oxo-4-phenyl-3-isoquinolinemethylamine], the pIC50 was 7.89. Compound `CN(Cc1cc(C(F)(F)F)cc(C(F)(F)F)c1)C(=O)c1c(-c2ccccc2Cl)c2ccccc2n(C)c1=O` [Example 262, N-[3,5-Bis(trifluoromethyl)benzyl]-4-(2-chlorophenyl)-1,2-dihydro-N,1-dimethyl-2-oxo-3-quinolinecarboxamide] had a pIC50 of 8.70. For `CN(Cc1cc(C(F)(F)F)cc(C(F)(F)F)c1)C(=O)c1nc(Cl)c2ccccc2c1-c1ccccc1` [Example 275, N-[3,5-Bis(trifluoromethyl)benzyl]-1-chloro-N-methyl-4-phenyl-3-isoquinolinecarboxamide] the value was 8.72; for `CN(Cc1cc(C(F)(F)F)cc(C(F)(F)F)c1)C(=O)c1[nH]c(=O)c2ccc(Cl)cc2c1-c1ccccc1` [Example 177, N-[3,5-Bis(trifluoromethyl)benzyl]-6-chloro-1,2-dihydro-N-methyl-1-oxo-4-phenyl-3-isoquinolinecarboxamide], 7.89.

Values taken from patent US5482967A, “Condensed heterocyclic compounds, their production and use” (Takeda Chemical Industries, Ltd., priority 1992, dated 1996).
